According to the NIST ThermoML archive (doi:10.1021/acs.jced.7b00904):

Assay: refractive index (Na D-line) (dimensionless); wn = mass fraction of the nth substance listed
Conditions: 101.3 kPa, Liquid, Standard Abbe refractometry

N#C[S-].[K+] [potassium thiocyanate] + O
refractive index
Conditions | 293 K | 298 K | 303 K | 308 K | 313 K
w1 = 0.218 | 1.3754 | 1.37475 | 1.37415 | 1.3731 | 1.3728
w1 = 0.244 | 1.38075 | 1.3802 | 1.3796 | 1.37855 | 1.3779
w1 = 0.265 | 1.38565 | 1.3852 | 1.3844 | 1.383 | 1.38205
w1 = 0.291 | 1.39085 | 1.3906 | 1.3896 | 1.38835 | 1.3876
w1 = 0.321 | 1.39825 | 1.39675 | 1.396 | 1.3949 | 1.39375
w1 = 0.359 | 1.4061 | 1.4054 | 1.4046 | 1.4033 | 1.40235
w1 = 0.381 | 1.41155 | 1.4105 | 1.4097 | 1.4079 | 1.40725
w1 = 0.406 | 1.41705 | 1.41615 | 1.4147 | 1.4139 | 1.41305
w1 = 0.42 | 1.41995 | 1.41945 | 1.4183 | 1.41675 | 1.41585
w1 = 0.435 | 1.42345 | 1.423 | 1.422 | 1.4199 | 1.41875
w1 = 0.451 | 1.42755 | 1.42705 | 1.42585 | 1.4241 | 1.4229
w1 = 0.468 | 1.43175 | 1.43085 | 1.4295 | 1.4281 | 1.4272
w1 = 0.477 | 1.43375 | 1.433 | 1.4319 | 1.43035 | 1.4294
w1 = 0.487 | 1.4358 | 1.4352 | 1.4344 | 1.43245 | 1.4315
w1 = 0.497 | 1.43825 | 1.43755 | 1.43665 | 1.4347 | 1.43375
w1 = 0.507 | 1.441 | 1.44045 | 1.43855 | 1.43715 | 1.4362
w1 = 0.518 | 1.4437 | 1.443 | 1.44095 | 1.4393 | 1.4385
w1 = 0.529 | 1.4465 | 1.44635 | 1.44455 | 1.4423 | 1.44175
w1 = 0.54 | 1.4493 | 1.44905 | 1.44675 | 1.4451 | 1.44415
w1 = 0.553 | 1.4521 | 1.45205 | 1.4499 | 1.4473 | 1.44725
w1 = 0.565 | 1.45545 | 1.45505 | 1.4534 | 1.45115 | 1.45065
w1 = 0.579 | 1.45915 | 1.4587 | 1.4569 | 1.45455 | 1.4536
w1 = 0.584 | 1.46045 | 1.46015 | 1.4584 | 1.4559 | 1.4554
w1 = 0.59 | 1.46215 | 1.4614 | 1.4599 | 1.4579 | 1.45645
w1 = 0.595 | 1.4635 | 1.46305 | 1.46155 | 1.4595 | 1.4587
w1 = 0.601 | 1.46515 | 1.46505 | 1.4633 | 1.46085 | 1.4596
w1 = 0.607 | 1.4672 | 1.46635 | 1.465 | 1.46265 | 1.462
w1 = 0.613 | 1.4681 | 1.46775 | 1.4663 | 1.46415 | 1.46305
w1 = 0.62 | 1.4694 | 1.4693 | 1.4682 | 1.46645 | 1.46495
w1 = 0.626 | 1.47155 | 1.47145 | 1.46985 | 1.46845 | 1.46715
w1 = 0.632 | 1.4733 | 1.47285 | 1.4721 | 1.4698 | 1.4689
w1 = 0.639 | 1.47505 | 1.4747 | 1.47385 | 1.47195 | 1.4704
w1 = 0.646 | 1.4771 | 1.47675 | 1.4757 | 1.47355 | 1.4724
w1 = 0.652 | 1.478 | 1.47805 | 1.4773 | 1.4761 | 1.4745
w1 = 0.659 | 1.4809 | 1.4805 | 1.4795 | 1.4784 | 1.47655
w1 = 0.667 | 1.48275 | 1.4826 | 1.4813 | 1.48045 | 1.47875
w1 = 0.674 | 1.48485 | 1.4846 | 1.4835 | 1.48215 | 1.48105
w1 = 0.681 | 1.4875 | 1.48685 | 1.48595 | 1.48455 | 1.483
w1 = 0.689 | 1.4891 | 1.4885 | 1.4876 | 1.4865 | 1.4855
w1 = 0.697 | 1.49135 | 1.4907 | 1.4896 | 1.4884 | 1.4871
w1 = 0.705 | 1.49315 | 1.4922 | 1.49135 | 1.49005 | 1.48924
